Measurements taken from patent publication US20180344855A1, “Stable Anti-inflammatory Solutions for Injection” (Omeros Corporation, priority 2011, published 2018).
Counter-ions that a name gives are not always drawn. Like-named read-outs stand apart in the source and are kept apart here.

Legend:
COX = settings: non-selective COX assay; cited from earlier work
[1] = target: non-human 5-HT1A, 5-HT1B and 5-HT1D receptors; settings: range over non-human 5-HT1A; cited from earlier work
[2] = target: human 5-HT1B and 5-HT1D receptors; settings: range over human 5-HT1B and 5-HT1D receptors; cited from earlier work
5-HT1B/1D receptor = settings: human saphenous vein; read-out: IC50 (functional agonist); cited from earlier work
[3] = target: α1A- and α2A-adrenoceptors; settings: range over α1A- and α2A-adrenoceptors; cited from earlier work
[4] = Formulation screening: storage stability, related substances by gradient HPLC (Examples 2-5); assay type: physicochemical; settings: in the presence of 0.05% w/v Na2 EDTA versus none; up to thirty days
Method: The stability of the active pharmaceutical ingredients was tested in acetate or citrate buffers. […] Chromatographic conditions for the related substances assay were as follows: (a) Detection wave length, UV 215 nm; (b) Column, Zorbax SB-C8, 5 μm, 4.6×250 mm; (c) Column temp, 30±1° C.; (d) Sample temp, Ambient; (e) Flow rate, 1.2 mL/min; (f) Injection volume, 20 μL; (g) Run Time, 30 minutes.
F6 included 50 mM Na acetate buffer, pH 5.5; F7 included 50 mM Na citrate buffer, pH 5.5. […] Citric acid also has the ability to chelate divalent cations and can prevent oxidation, thus acting both as a buffering agent and an antioxidant.
The Stability of the Active Pharmaceutical Ingredients was Tested in Buffers with varying pH values. […] Data not shown. Both formulations included 50 mM Na citrate buffer. F8 pH was 6.5 and F9 pH was 5.5.
The stability of the active, pharmaceutical ingredients in liquid formulation was tested in the presence of N2 overlay and light protection. Two formulations, F10 and F11, were prepared and stored for up to 28 days under the conditions shown in FIG. 4A, i.e., with or without N2 overlay and light protection. […] F10 was prepared under protection from light and N2 overlay post-compounding and pre-filling of formulation into vials, while F11 was not.
The effect of antioxidants on stability of the active pharmaceutical ingredients in liquid formulation was tested. […]

[5] = Method: Thus, the final concentration of Na citrate was about 50 mM. Three cGMP registration lots of the formulation, each in three hundred liter volume, were manufactured and stored at temperatures of 5° C., 25° C., 30° C., or 40° C. for long-term stability evaluation. Aliquots were taken from each lot at intervals and analyzed for potency and presence of related substances. In addition, the lots were visually inspected for appearance and the pH was also monitored.
Related substances (RS) were detected by HPLC.

[6] = One-liter scale stability study with or without Na2 EDTA, N2 overlay or sparge (Example 8); assay type: physicochemical; settings: over six months

Q: With `CC(C(=O)O)c1cccc(C(=O)c2ccccc2)c1` (stereo not drawn) [Ketoprofen, ketoprofen] as the compound, how does the IC50 (COX) read?
A: Its IC50 is 4 to 8 nM.

Q: What does the source list for `Cc1cc(C(C)(C)C)c(O)c(C)c1CC1=NCCN1` [oxymetazoline]?
A: IC50 [1]: 3 to 26 nM; Ki [2]: 0.3 to 0.4 nM; IC50 (5-HT1B/1D receptor): 30 nM; Ki [3]: 3 to 6 nM

Q: With `CN(C)CCC=C1c2ccccc2CCc2ccccc21` [amitriptyline HCl] as the compound, how does the chemical stability [4] read?
A: The chemical stability was “improved”.

Q: What about the “stability in the tested formulation” value [5] of the same compound?
A: The value was “stable”.

Q: What about the RS presence ([5]; 4° C.) of the same compound?
A: Its RS presence is “present sporadically”.

Q: And the “percentage of RS over time” value ([5]; 25° C. and 30° C.)?
A: Its value is “increased over the first three months, and then was stable for up to two years”.

Q: What about the “percentage of RS over time” value ([5]; 40° C.) of the same compound?
A: The value was “increased during the first month and then stabilized”.

Q: What about the “related substances of the named API” value [6] of the same compound?
A: Its value is “less than 5%”.

Q: For `Cc1cc(C(C)(C)C)c(O)c(C)c1CC1=NCCN1` [Oxymetazoline HCl, oxymetazoline HCl], which “total RS %” value ([5]; stored at 30° C. and 40° C.) is on record?
A: The value was “increased significantly”.

Q: What about the “total RS %” value ([5]; two years at 5° C.) of the same compound?
A: The value was 0.00%.

Q: And the “total RS %” value ([5]; two years at 25° C.)?
A: Its value is “about 0.15%”.

Q: What about the “related substances of the named API” value [6] of the same compound?
A: The value was “less than 1%”.
